Measured values taken from patent US20080293699A1, “Inhibitors of thapsigargin-induced cell death” (priority 2007, published 2008).
“Also recorded” adds a separate entry of the source. Like-named read-outs stand apart in the source and are kept apart here.

What was measured:
Assay type in all cases: cell-based, rat
[1] = system: CSM14.1 cells; experiment: Annexin V staining viability assay (flow cytometry), thapsigargin-treated undifferentiated CSM14.1 cells; conditions: hit compounds 25 μM, TG 15 μM
Method: Undifferentiated CSM14.1 cells were cultured as for FIG. 16. The next day, DMSO (a, b) (1% final volume), 100 μM Salubrinal (c, d) or 25 μM of hit compounds (1% final DMSO) was added. After two hrs, 15 μM TG was added to all wells except a and c. The plates were returned to culture for 24 hrs, then cells were recovered by trypsinization, transferred to 1.5 ml microcentrifuge tubes, and resuspended in 0.5 mL of Annexin V-binding solution. The percentage of annexin V-negative cells was determined by flow-cytometry (y-axis). Treatments and compounds were the same as in FIG. 16.
One method we have employed, for example, for confirming protection against TG-induced killing uses fluorochrome-conjugated annexin V staining with flow-cytometry analysis to evaluate the percentage cell viability by a method that is independent of the ATP content assay.
FIGS. 16 and 17 show the results of a secondary assay for evaluating the cytoprotective activity of the compounds. In FIG. 16, undifferentiated CSM14.1 cells were cultured at 10^4 cells per well of 24-well plates (Greiner Bio One). The next day, DMSO (a, b) (1% final volume), 100 μM Salubrinal (c, d) or 25 μM of hit compounds (1% final DMSO) was added. After two hrs, 15 μM TG was added to all wells except a and c. A conventional ATP assay was performed to measure survival rate. In FIG. 17 undifferentiated CSM14.1 cells were cultured at 10^4 cells per well of 24-well plates (Greiner Bio One). The next day, DMSO (a, b) (1% final volume), 100 μM Salubrinal (c, d) or 25 μM of hit compounds (1% final DMSO) was added. After two hrs, 15 μM TG was added to all wells except a and c. […] The percentage of annexin V-negative cells was determined by flow-cytometry (y-axis), using a FACSort instrument (Beckton-Dickinson). […]
7) The percentage of annexin V-negative cells was determined by flow-cytometry (y-axis), using a FACSort analysis facility in Burnham (Beckton & Dickinson)

[2] = system: CSM14.1 cells; experiment: Primary HTS assay: ATP content (ATPlite) of undifferentiated CSM14.1 cells challenged with thapsigargin; conditions: for IC50: thapsigargin-induced death of undifferentiated CSM14.1, ATP content; for Protection against TG-induced cell death by Salubrinal: 100 μM Salubrinal, 15 μM TG, undifferentiated CSM14.1, ATP
Description: For convenience, and because transient reductions in temperature that might be associated with large screening experiments could restore Large T activity, we elected to develop our HTS using undifferentiated CSM14.1 cells, with the plan to then confirm hits using differentiated cells. For monitoring cell death, we used a commercially available bioluminescence reagent that determines intracellular ATP content, without requirement for complicated cell processing steps (ATPlite, Perkin Elmer). Thus, ATP was used as a surrogate indicator of cell survival for the primary assay.
Undifferentiated or differentiated CSM14.1 cells were plated at a density of 3,000 cells/well in 40 μL DMEM medium (containing 10% serum, 1 mM L-glutamine, and antibiotics) in 96 well flat-bottom microtiter plates composed of polystrene (Greiner Bio One, polystyrene, white wall, flat bottom, lumitrac, high binding). After overnight incubation at 32° C., DMSO (0.5% v/v) or 100 uM Salubrinal (Sal) in DMSO was delivered. After 2 hrs, 5 uL of a stock solution of 150 uM TG in DMEM medium containing 0.75% (v:v) DMSO to achieve a final concentration of approximately 15 uM. After culturing for 24 hrs, cellular ATP content was measured by addition of 20 uL per well of ATPlite solution (Perkin-Elmer), and then the plates were incubated for three minutes at room temperature, before reading with a Microplate Luminometer (BD Pharmingen Moonlight model 3096).
To determine the reproducibility of the ATP content assay, we prepared a 96-well plate in which half the wells received TG plus DMSO (assay minimum) and half received TG plus Salubrinal (assay maximum), then performed the ATP content studies using undifferentiated CSM14.1 cells (FIG. 6). CSM14.1 cells were cultured overnight at 3,000 cells per well in 96-well flat-bottom plates, then either DMSO (0.5% final concentration) or Salubrinal (100 μM) in DMSO (0.5% final concentration) was added to half the well (48 each). After two hrs, TG was added to all wells (15 μM final). Cells were cultured for 24 hrs, then the ATP content was measured using the ATPlite luminogenic assay. We then adapted this assay to the high-throughput environment, using a Biomex™ FX liquid handler for automated dispensing of assay components into microwells of 96-well plates. First, undifferentiated CSM14.1 cells were grown at 32° C. in DMEM medium supplemented with 10% fetal bovine serum (FBS), 1% penicillin/streptomycin, and 1% L-glutamine in 150 mm×25 mm polystyrene culture dishes to produce approximately 3×10^6 cells. Second, CSM14.1 cells were recovered from cultures by trypsinization when at 80-90% confluence, and suspended at 7.5×10^4 cells/mL in DMEM medium containing 2% FBS, 1 mM L-glutamine, and antibiotics 100 IU penicillin 100 μg/ml streptomycin. Third, the cell suspension was then delivered at 40 μL per well of 96-well plastic microtiter plates (Greiner Bio One, polystyrene, white wall, flat bottom, lumitrac, high binding, cat #655074), and the plates were cultured overnight at 32° C. in a humidified atmosphere in 95% air: 5% CO2. Fourth, using the automated liquid handler, 5 μL of test compounds in 10% DMSO were added to wells in columns 2-11 of the 96-well plates (leaving columns 1 and 12 intact) to achieve an approximate final concentration of 15 μg/mL test compound and a final concentration of 1% DMSO. Fifth, 5 μL of 1 mM Salubrinal in a solution of 10% DMSO:90% DMEM was added to wells of column 1/rows A-D of each plate, while 5 μL of 10% DMSO:90% DMEM solution was added to wells corresponding to column 1/rows E-H and to all wells in column 12. Sixth, the plates were returned to culture.

[3] = system: differentiated CSM14.1 cells; experiment: ATP content assay, thapsigargin-treated differentiated CSM14.1 cells; conditions: compound 25 μM with 10 μM thapsigargin, Salubrinal 100 μM
Method: Of the 26 compounds shown in Table 9, 16 were subsequently confirmed to protect differentiated CSM14.1 cells from TG-induced cell death. For these assays, CSM14.1 cells were differentiated by culture in 2% FBS for 7 days at non-permissive temperature of 39° C. […] CSM14.1 cells were plated at 1,500 cells per well in 96-well plates, and cultured overnight at 32° C. (permissive temperature; FIG. 14, left) or at 39° C. (non-permissive temperature, FIG. 14, right) for 7 days. […] ATP content was measured, and data were expressed as a percentage of control cells treated only with 1% DMSO (mean ±SD; n=3). Two percent FBS was used during differentiation, but all assays were performed in 10% FBS.
For PC12, cells were stimulated with 20 ng/ml NGF for five days; for C17.2, cells were stimulated with serum reduction, and 1% N2 incubation for three days; for CSM14.1, cells were cultured at 39° C. for 5-7 days.
CSM14.1 cells were plated at 1,500 cells per well in 96-well plates and cultured at 39° C. (non-permissive temperature) for 7 days. […] ATP content was measured and data were expressed as a percentage of control cells treated with only 1% DMSO.

[4] = system: CSM 14.1 cells; experiment: MTS assay of thapsigargin-induced death of CSM 14.1 cells; conditions: salubrinal two hours before 7.5 mM thapsigargin, 18 hours
Method: CSM 14.1 cells were plated at a density of 3×10^3 cells per well in 96-well plates and incubated overnight. The indicated concentration of salubrinal was pre incubated with cells for two hours, followed by […] thapsigargin treatment. 18 hours later, cell death rates were measured by the MTS assay. For the MTS assay, the CellTiter 960 Aqueous Non-radioactive Cell Proliferation Assay kit (Promega) was used. The reaction-ready solution was made according to the manufacturer's protocol, and each treated well of the 96-well plate was incubated with 20 μl of the reaction-ready solution. The plates were incubated humidified cell incubator at 37° C. with 5% CO2 for two hours, and the absorbance of each well was read by an ELISA plate reader at 490 nm wavelength. To determine the background level of absorbance, the same volume of culture media (DMEM without cells) was incubated with MTS solution. The background value was subtracted from the value of each well. Background values from the control treatment (no TG, no Sal) wells were set as 100% survival, and the experimental wells' values were evaluated as the percentage of the control value.

[5] = system: CSM14.1 cells; experiment: Tunicamycin-induced cell death of CSM14.1 cells; conditions: 100 μm salubrinal; stated in the description of FIG. 13 (tunicamycin, annexin V flow cytometry)
Method: CSM 14.1 cells were plated at a density of 3×10^3 cells/well in 96-well plates and incubated overnight. Cells were pre-incubated with 25 μM of each compound or 100 μM salubrinal for two hours, followed by […] tunicamycin treatment. 72 hours later, cell death rates were measured by flow cytometry analysis. Annexin V-negative population was considered as survivors. In FIG. 13, the white column represents 0.5% DMSO control showing 24% of survival, and the gray column 100 μM salubrinal. Black columns are data from each compound (25 μM) (compound numbers refer to the compounds in Table 9).
For the experiments shown in FIG. 18, undifferentiated CSM 14.1 cells were plated at 3,000 cells per well in 96-well plates (for the ATP assay) or at 1×10^4 cells per well in 24-well plates (for flow cytometry). The next day, cells were treated with DMSO (0.5%) or hit compounds 25 μM of a compound with 0.5% DMSO final concentration) for two hours, followed by treatment with various cell death-inducing reagents, including 15 μM Thapsigargin (TG) for 24 hrs, 10 μg/mL tunicamycin (TU) for 72 hrs, 2.5 μM staurosporine (STS) for 24 hrs, 50 μM VP16 for 48 hrs, or 30 ng/mL TNF plus 10 μg/mL cyclohexamide (CHX) for 24 hrs. Cellular ATP content was measured for staurosporine samples and TNF/CHX samples, normalizing data relative to cells treated with DMSO alone (the control) and presenting as a percentage of control. For measuring cell death resulting from treatment with tunicamycin and VP16, flow cytometry was used. All assays were performed in triplicate (mean ±SD).

[6] = system: CSM14.1 cells; experiment: Pilot dose-response of thapsigargin on undifferentiated CSM14.1 cells (ATP content, vital dye exclusion)
Method: In pilot experiments, undifferentiated CSM14.1 cells were plated at various densities in wells of a 96 well plate, cultured overnight, then the ATP content of the cells was measured using the luminogenic ATPlite reagent (FIG. 4A). We also performed dose-response experiments for thapsigargin (FIG. 4B) by culturing CSM14.1 cells at 3,000 cells per well overnight, then treating the cells with various concentrations of TG or Sal and cultured for 18 hrs before determining ATP content (mean ±SD; n=3) (FIG. 4B). Similarly, we performed dose response experiments for Salubrinal (Sal). Cells were plated and cultured as above, then treated with various concentrations of Salubrinal, followed two hrs later by 15 uM TG. Cells were cultured for 18 hrs, then ATP content was determined (mean ±SD; n=3) (FIG. 4C). […] As a control, we employed Salubrinal, which was reported to block ER stress-induced cell death (Boyce et al., Science, 307:935-939, 2005).

Compound: O=C(CN1CC[n+]2c(-c3cccs3)csc21)c1ccccc1.[Br-] [Compound 5979207]
- Protection against TG-induced cell death measured by annexin V staining [1]: less active
- Activity against thapsigargin-induced cell death / cell protection ([2]; cell death assay used for primary screening): potent inhibitor of cell death

Compound: COc1cccc(CN2CCN(C(=O)c3ccc(-c4ccccc4)cc3)CC2)c1 [Compound 5998734]
- Protection against TG-induced cell death measured by annexin V staining [1]: less active
- IC50 ([2]; first assay, read-out: IC50 (μM), first value): 20 ± 0.493 µM
- IC50 ([2]; second assay (value in bold), read-out: IC50 (μM), value from a second assay): 14.6 ± 26.6 µM

Compound: O=C(/C=C/c1ccccc1)NC(NC(=S)Nc1cccc2cccnc12)C(Cl)(Cl)Cl (stereo not drawn) [Salubrinal, reference compound]
- Protection of differentiated CSM14.1 cells from thapsigargin-induced death [3]: protects
- Protection against TG-induced cell death by Salubrinal [2]: significantly protected; also recorded: protects
- Protection against TG-induced cell death by Salubrinal ([2]; listed as Sal): protects
- Inhibition of thapsigargin-induced cell death, MTS assay [4]: less efficiently than our hit compounds
- Inhibition of tunicamycin-induced cell death [5]: 75%

Compound: C/C=C(/C)C(=O)O[C@H]1C(C)=C2[C@H]([C@@H]1OC(=O)CCCCCCC)[C@@](C)(OC(C)=O)C[C@H](OC(=O)CCC)[C@@]1(O)[C@H]2OC(=O)[C@@]1(C)O [thapsigargin]
- reduction in ATP per well ([6]; 15 μM thapsigargin, 3,000 cells per well, 18 hrs): ~95%
- cell killing ([6]; 15 μM thapsigargin, vital dye exclusion assays): ~95%
